Laboratory results taken from US7056498B2, “Composition containing aminophenol derivative, use thereof, and process for dissolving aminophenol derivative” (L'Oreal, priority 1999, dated 2006).

Experiments:
Format in all cases: physicochemical
[1] = Amount of aminophenol derivative dissolved in various solubilizing agents
Experimental: The amount of aminophenol derivative (N-ethyloxyearbonyl-4-para-aminophenol, or EPAP, and N-cholesteryloxyearbonyl-4-para-aminophenol, or CPAP) which can be dissolved in various solubilizing agents, at 60° C., was compared in Tables 1 and 2 below.

[2] = Storage stability of the compositions for two months (viscosity, colour, odour, HPLC content, crystals); conditions: two months at room temperature and at 45° C.
Experimental: After storage for two months at room temperature and at 45° C., no change in the viscosity or colour of the composition and no release of odour were observed.

[3] = Amount of aminophenol derivative dissolved in various solubilizing agents; conditions: in caprylic/capric triglycerides, at room temperature
[4] = in apricot kernel oil, at 60° C.
[5] = in mixture of oxyethylenated (26 EO) oxypropylenated (26 PO) butyl alcohol and oxyethylenated (40 EO) hydrogenated castor oil
[6] = in oxyethylenated (7 EO) hydrogenated castor oil, at 60° C.
[7] = in oxyethylenated (20 EO) oxypropylenated (5 PO) cetyl alcohol, at 60° C.
[8] = in oxyethylenated (20 EO) sorbitan monostearate, at 60° C.
[9] = in oxyethylenated (40 EO) hydrogenated castor oil, at 60° C.
[10] = in oxyethylenated (60 EO) hydrogenated castor oil, at 60° C.
[11] = in composition of Example 1 (fluid emulsion)
[12] = in composition of Example 2 (fluid emulsion)
[13] = in composition of Example 3 (bleaching fluid)

With `CCOC(=O)Nc1ccc(O)cc1` [EPAP, N-ethyloxycarbonyl-4-para-aminophenol] the Amount dissolved ([1]; in Laureth-4, at 60° C.) was 25%, the Amount dissolved [1, 4] was “insoluble” and the Amount dissolved ([1]; in caprylic/capric triglycerides, 80° C.) was 4.7% (80° C.);. For the same molecule, the Amount dissolved ([1]; in hexyldecanol, at 60° C.) was “insoluble”, the Amount dissolved ([1]; in mineral oil, at 60° C.) was “insoluble” and the Amount dissolved ([1]; in mixture of oxyethylenated (9 EO) tridecyl alcohol and oxyethylenated (40 EO) hydrogenated castor oil) was 25%. The Amount dissolved [1, 5] was 20%, the Amount dissolved ([1]; in octyldodecanol, at 60° C.) was “insoluble” and the Amount dissolved [1, 6] was 16.6%. For the same molecule, the Amount dissolved [1, 7] was 16.5%, the Amount dissolved [1, 8] was 50% and the Amount dissolved [1, 9] was 16.5%. For the same molecule, the Amount dissolved [1, 10] was 16.5%, the “Decrease in compound content, as determined by HPLC” value (shortened to “Decrease in compound content”) [2, 11] was “no decrease” and the “Formation of crystals of the compound” value [2, 11] was “no formation of crystals”. For the same molecule, the Recrystallization after dissolution [3] was “recrystallizes”.

In the case of `CC(C)CCC[C@@H](C)[C@H]1CC[C@H]2[C@@H]3CC=C4C[C@@H](OC(=O)Nc5ccc(O)cc5)CC[C@]4(C)[C@H]3CC[C@]12C` [CPAP, N-cholesteryloxycarbonyl-4-para-aminophenol], the Amount dissolved ([1]; in Laureth-4, at 60° C.) was 4.8%, the Amount dissolved ([1]; in Laureth-23, at 60° C.) was 4.8% and the Amount dissolved [1, 4] was “insoluble”. For the same molecule, the Amount dissolved ([1]; in caprylic/capric triglycerides, at 60° C.) was 0.5%, the Amount dissolved ([1]; in hexyldecanol, at 60° C.) was “insoluble” and the Amount dissolved ([1]; in mineral oil, at 60° C.) was “insoluble”. For the same molecule, the Amount dissolved [1, 5] was 14.2%, the Amount dissolved ([1]; in octyldodecanol, at 60° C.) was 0.5% and the Amount dissolved [1, 6] was 12.5%. The Amount dissolved [1, 7] was 14.2%, the Amount dissolved [1, 8] was 14.2% and the Amount dissolved [1, 9] was 16.5%. For the same molecule, the Amount dissolved [1, 10] was 16.5%, the “Decrease in compound content” value [2, 12] was “no decrease” and the “Formation of crystals of the compound” value [2, 12] was “no formation of crystals”. The “Decrease in compound content” value [2, 13] was “no decrease” and the “Formation of crystals of the compound” value [2, 13] was “no formation of crystals”.
